Tests used:
[1] = blood plasma; cited from earlier work
[2] = human, in vivo, po
Experimental: A clinical study to estimate the pharmacokinetic (PK) profile of enclomiphene (trans-clomiphene) following single-dose and steady-state doses administered orally. 52 adult males between 18 and 75 years of age with total serum testosterone level<250 ng/dl or between 250 to 300 ng/dl and FSH/LH levels within the normal range, were randomly assigned to one of the following five treatment groups: (i) 12.5 mg enclomiphene/day (ii) 25 mg enclomiphene/day (iii) 50 mg enclomiphene/day (trans-clomiphene) (iv) Androgel® (1% topical testosterone applied daily) or (v) placebo. Enclomiphene citrate was provided as 12.5 mg capsules and orally administered once (12.5 mg arm) twice (25 mg arm) or four times (50 mg arm) per day for 14 consecutive days. Single-dose and steady-state PK assessments were preformed in a subset of these males following the first (Day 1) and last (Day 14) dose. […] Pre-dose plasma enclomiphene concentrations were also measured on Day 11 using a single blood sample. […] PK parameters were calculated using noncompartmental methods for subjects randomized to enclomiphene. The accumulation ratio, defined as the AUC0-24 on Day 14, divided by the AUC0-24 value on Day 1 was calculated.
The accumulation index for each enclomiphene dose group was calculated based on the arithmetic mean of the individual ratio of AUC(0-24) on Day 14 divided by AUC(0-24) on Day 1. […]

[3] = system: rodent, baboon, rabbit and dog models; assay: Animal safety pharmacology studies; type: in vivo
[4] = system: adult human males with secondary hypogonadism; assay: One year open label extension study, long term oral trans-clomiphene 12.5 mg daily
[5] = majority or all of the timepoints

Compound: CC/C(=C(\c1ccc(I)cc1)c1ccc(OCCN2CCCC2)cc1)c1ccccc1 [Idoxifene]
- Half-Life [1]: 3 weeks

Compound: OCCOc1ccc(/C(=C(/CCCl)c2ccccc2)c2ccccc2)cc1 [Ospemifene]
- Half-Life [1]: 26 h

Compound: CCN(CC)CCOc1ccc(/C(=C(\Cl)c2ccccc2)c2ccccc2)cc1 [Enclomiphene, trans-clomiphene]
- half life of enclomiphene based on the PK data obtained [2]: ~10.5 h
- adverse effects in the central nervous, respiratory or cardiovascular systems [3]: no adverse effects
- other questionnaires of sexual function (DISF-SR II (M), MSDS) ([4]; 12.5 mg daily oral): no concomitantly significant changes
- overall mean increases in total serum testosterone from baseline to 1 year ([4]; 12.5 mg daily oral): statistically significant
- subjects who experienced serious adverse effects (SAEs) ([4]; 12.5 mg daily oral up to one year): 5%
- subjects who experienced at least one adverse event considered related to the study drug ([4]; 19/101 subjects): 18.8%
- subjects with mean total serum testosterone levels within the normal reference range ([4]; at 1 year, normal range 300-1040 ng/dl, 12.5 mg daily oral): 62.5%
- discontinuation due to a reduction in visual acuity ([4]; during the study): No subjects were discontinued
- hematology, blood chemistry, urinalysis, vital signs, physical exam, PSA values, ECG readings ([4]; during the study): no clinically relevant changes
- subjects discontinued from the study due to AEs ([4]; during the study): Nine
- subjects who experienced at least one adverse event ([4]; during the study): 51.5%
- subjects with events considered severe ([4]; during the study): nine
- libido, libido component of IIEF questionnaire ([4]; from baseline at months 4, 6 and 12): Statistically significant improvements
- DHT/testosterone ratio change [4, 5]: Statistically significant increases
- FSH change [4, 5]: Statistically significant increases
- LH change [4, 5]: Statistically significant increases
- dihydrotestosterone (DHT) change [4, 5]: Statistically significant increases
- estradiol change [4, 5]: Statistically significant increases
- high-density lipoprotein cholesterol (HDL-C) change from baseline [4, 5]: Statistically significant decreases
- prolactin change [4, 5]: statistically significant decreases
- sex hormone binding globulin (SHBG) change [4, 5]: Statistically significant increases
- total cholesterol (TC) change from baseline [4, 5]: Statistically significant decreases
- triglycerides change from baseline [4, 5]: Statistically significant decreases
- testicular size, significance of increase ([4]; orchidometer): statistically significant increase was observed at Month 6 only

Compound: Oc1ccc2c(c1)CC[C@H](c1ccccc1)[C@@H]2c1ccc(OCCN2CCCC2)cc1 [Lasofoxifene]
- Half-Life [1]: 140 h

Compound: COc1ccc2c(c1)OC(C)(C)C(c1ccccc1)C2c1ccc(OCCN2CCCC2)cc1 (stereo not shown) [Ormeloxifene]
- Half-Life [1]: 170 h

Compound: COc1ccc(-c2sc3cc(O)ccc3c2Oc2ccc(OCCN3CCCCC3)cc2)cc1 [Arzoxifene]
- Half-Life [1]: 30 h

Compound: CC/C(=C(/c1ccc(OCCN(C)C)cc1)c1cccc(O)c1)c1ccccc1 [Droloxifene, E-1-[4′-(2-dimethylaminoethoxy)phenyl]-1-(3′-hydroxyphenyl)-2-phenyl-1-butene]
- Half-Life [1]: 24 h

Compound: CCN(CC)CCOc1ccc(C(=C(Cl)c2ccccc2)c2ccccc2)cc1 [Clomid]
- Half-Life [1]: 120 to 170 h

Compound: COc1ccc2c(c1)OC(C)(C)[C@@H](c1ccccc1)[C@@H]2c1ccc(OCCN2CCCC2)cc1 [Levormeloxifene, (−)-3R,4R-trans-7-methoxy-2,2-dimethyl-3-phenyl-4-{4-[2-(pyrrolidin-1-yl)ethoxy]phenyl} chromane]
- Half-Life [1]: 24 h

Compound: O=C(c1ccc(OCCN2CCCCC2)cc1)c1c(-c2ccc(O)cc2)sc2cc(O)ccc12 [Raloxifene, 6-hydroxy-2(4-hydroxyphenyl)-3-[4-(2-piperdinoethoxy)benzoyl]benzo[b]thiophene]
- Half-Life [1]: 27 h

Compound: CC/C(=C(\c1ccccc1)c1ccc(OCCN(C)C)cc1)c1ccccc1 [Tamoxifen]
- Half-Life [1]: 120 to 170 h

Reference: US20160346295A1, “Selective Estrogen Receptor Modulators With Short Half-Lives and Uses Thereof” (REPROS THERAPEUTICS INC., priority 2012, published 2016)
